From ChEMBL document CHEMBL5620365, “Synthesis and evaluation of piperazinotriazoles. Discovery of a potent and orally bioavailable neurokinin-3 receptor inhibitor” (Eur J Med Chem, 2023)

Columns and labels:
[1] = in vivo; details: Sprague-Dawley, rat, iv, 1 mg/kg
[2] = in vivo; details: Sprague-Dawley, rat, brain, po, 5 mg/kg
[3] = in vivo; details: Sprague-Dawley, rat, iv, 1 mg/kg; remark: listed apart in the source
[4] = in vitro; details: human, liver microsomes
[5] = in vivo; details: Sprague-Dawley, rat, brain, po, 5 mg/kg; remark: listed apart in the source
[6] = in vivo; details: Sprague-Dawley, rat, po, 5 mg/kg
[7] = in vivo; details: Sprague-Dawley, rat, iv, 1 mg/kg; remark: listed apart in the source
[8] = in vitro; details: rat, liver microsomes
[9] = in vivo; details: Sprague-Dawley, rat, po, 5 mg/kg; remark: listed apart in the source
[10] = in vivo; details: Sprague-Dawley, rat, iv, 1 mg/kg; remark: listed apart in the source
[11] = in vivo; details: Sprague-Dawley, rat, po, 5 mg/kg; remark: listed apart in the source
[12] = in vivo; details: Sprague-Dawley, rat, iv, 1 mg/kg; remark: listed apart in the source
[13] = in vivo; details: Sprague-Dawley, rat, po, 5 mg/kg; remark: listed apart in the source
[14] = in vivo; details: Sprague-Dawley, rat, liver, po, 5 mg/kg

Cc1nsc(-c2nnc3n2CCN(C(=O)c2ccc(F)cc2)[C@@H]3C)n1 [FEZOLINETANT]
Cmax at 24 h [1]: 1770 ng/mL
concentration at 10 h [2]: 297 ng/g
Vd at 24 h [3]: 0.751 L/kg
CLint scaled at 0.25 h [4]: < 13.5 mL/min/kg
concentration at 1 h [5]: 1020 ng/g
Cmax at 24 h [6]: 3630 ng/mL
AUC(0-t) at 24 h [7]: 5590 ng·h/mL
CLint scaled at 0.25 h [8]: < 6.8 mL/min/kg
AUC(0-t) at 24 h [9]: 31600 ng·h/mL
half-life at 24 h [10]: 176 min
half-life at 24 h [11]: 223 min
clearance at 24 h [12]: 2.93 mL/min/kg
Tmax at 24 h [13]: 1.83 h
concentration at 1 h [14]: 12100 ng/g
